Three compounds from article PMC7835894 (Molecules, 2021) can be followed below.

Common to all, as to format: cell-based, human
The test system of assay [1] is Caco-2 cells. The assay can be described thus: Total antioxidant capacity (TAC/TAO). To be noted: Caco-2 cell lysate, IC50 concentration, 24 h; solvent control 32.6 ± 0.21. The protocol: Total antioxidant capacity was assayed spectrophotometrically using a Biodiagnostics® kit (Catalogue number TA 25 13, Biodiagnostics, Cairo, Egypt). […] The measurement of total antioxidants is based on treating the cell lysate with a known excess of H2O2 (50 µM). A certain amount of H2O2, equivalent to TAC, is eliminated leaving a residual amount of H2O2 that is quantified colorimetrically by the enzymatic conversion of 3, 5, dichloro-2-hydroxy benzene sulphonate to a colored product.

The test system of assay [2] is Caco-2 cells. Nature of the assay: Cell cycle analysis (PI, flow cytometry). The note with it: Caco-2, IC50 of retinoid. The protocol: The cell cycle analysis was performed using flow cytometry (Beckman Coulter, Brea, CA, USA). […] After incubation, cells were harvested, fixed with 70% alcohol overnight, and stained with PI (50 µg/mL). DNA content was measured by Beckman Coulter Epics XL flow cytometer and G0/G1, S, and G2/M cells were gated as appropriate using Flowing Software 2.5.1 (Turko Bioimaging, Turku, Finland).
Background: In flow cytometry, cells or beads pass a laser one at a time.

For another assay, the system named is RAR-γ. The assay can be described thus: Gene expression analysis (qPCR) in Caco-2 cells. To be noted: Caco-2, IC50, 24 h, relative to 0.1% DMSO control, normalized to GAPDH. The protocol:
(§1) Sensitive cancer cell line (Caco-2) was used for gene expression analysis of different genes controlling differentiation, apoptosis, tumor resistance, aggressiveness, and metastasis. […] After incubation, cells were harvested, and the total RNA was purified using Favor-Prep^TM Blood/Cultured cell total RNA purification mini kit (Favorgen Biotech Corp., Ping-Tung, Taiwan). RNA was reverse transcribed into the first-strand cDNA using Revert Aid First Strand cDNA Synthesis Kit (Thermo Scientific, Waltham, MA, USA). HERA^PLUS SYBR® Green qPCR Kit (Willowfort, Nottingham, UK) was utilized in quantitative polymerase chain reactions (qPCR). Gene expression was analyzed and quantified using the 2ˆ^−ΔΔCT method.
(In general: In qPCR the cycle at which signal appears reflects the starting amount.)

The subject of the next assay is cytochrome-C (Cyt-C). The assay can be described thus: Gene expression analysis (qPCR) in Caco-2 cells. The note with it: Caco-2, IC50, 24 h, relative to 0.1% DMSO control. The protocol:
as §1

The test system of a further assay is RAI2. The assay can be described thus: Gene expression analysis (qPCR) in Caco-2 cells. To be noted: Caco-2, IC50, 24 h, relative to 0.1% DMSO control. The protocol:
as §1

A further assay concerns RAR-β. Nature of the assay: Gene expression analysis (qPCR) in Caco-2 cells. To be noted: Caco-2, IC50, 24 h, relative to 0.1% DMSO control, normalized to GAPDH. The protocol:
as §1

Another assay concerns p53. The assay can be described thus: Gene expression analysis (qPCR) in Caco-2 cells. The note with it: Caco-2, IC50, 24 h, relative to 0.1% DMSO control. The protocol: as §1
The next assay has as its system Bax. Nature of the assay: Gene expression analysis (qPCR) in Caco-2 cells. The note with it: Caco-2, IC50, 24 h, relative to 0.1% DMSO control. The protocol: as §1
The subject of the next assay is RAR-α. Nature of the assay: Gene expression analysis (qPCR) in Caco-2 cells. To be noted: Caco-2, IC50, 24 h, relative to 0.1% DMSO control, normalized to GAPDH. The protocol:
as §1

The subject of the next assay is E-cadherin. The assay can be described thus: Gene expression analysis (qPCR) in Caco-2 cells. To be noted: Caco-2, IC50, 24 h, relative to 0.1% DMSO control. The protocol: as §1
The test system of a further assay is Caspase-3 (Cas-3). The assay can be described thus: Gene expression analysis (qPCR) in Caco-2 cells. The note with it: Caco-2, IC50, 24 h, relative to 0.1% DMSO control. The protocol:
as §1

The next assay has as its system Caspase-8 (Cas-8). The assay can be described thus: Gene expression analysis (qPCR) in Caco-2 cells. The note with it: Caco-2, IC50, 24 h, relative to 0.1% DMSO control. The protocol: as §1
The test system of the next assay is WRN. Nature of the assay: Gene expression analysis (qPCR) in Caco-2 cells. The note with it: Caco-2, IC50, 24 h, relative to 0.1% DMSO control. The protocol:
as §1

For a further assay, the system named is HT-29. Nature of the assay: MTT antiproliferation assay. The note with it: for SI (selectivity index): HT-29, SI = IC50 (WI-38)/IC50 (cancer cell line); for IC50: Homo sapiens, HT-29, MTT, 24 h, mean ± SEM. The protocol:
The antiproliferation and cytotoxicity were assessed using 3-(4,5-dimethylthiazol-2-yl)-2,5-diphenyltetrazolium bromide (MTT, Serva) colorimetric assay. To investigate the antiproliferation, all cell lines were seeded at a density of 20,000 cells per well in 96-well plates and allowed to adhere overnight. […] These concentrations were prepared by diluting the stock solutions with serum-free culture media. The negative control cells were those treated with 0.1% DMSO solvent alone. The treated cells were handled in reduced light and maintained under standard culture growth conditions for 24 h. After the incubation period, MTT powder was prepared as a stock solution (5 mg/mL) and 20 μL of the MTT working reagent (final concentration 0.5 mg/mL) was added to each well. This was followed by incubation with MTT reagent for 4 h in a humidified atmosphere (37 °C, 5% CO2) with subsequent addition of 150 μL of DMSO solubilizing solvent and incubation for 20 min. The absorbance of solubilized violet formazan crystals was measured at 540 nm with Biotek 800 TS microplate reader. IC50 was calculated as the concentration of retinoid that produced 50% cell growth inhibition. For cytotoxicity assessment, WI-38 normal human fibroblast cells were used for the calculation of SI which is the ratio of IC50 retinoid (WI-38)/IC50 retinoid (cancer cell line).
(In general: Tetrazolium assays rely on reduction of a dye to a coloured formazan, in cell work by metabolically active cells.)

The subject of a further assay is Cytochrome-C. The assay can be described thus: Immunocytochemistry of cytosolic Cyt-C in Caco-2 cells. The note with it: Caco-2, IC50, 24 h, compared to 0.1% DMSO control. The protocol:
Caco-2 cells were seeded onto coverslips at a density of 1 × 10^6 cells using 0.1 mg/mL Poly-L-Lysine (Sigma-Aldrich, St. Louis, MO, USA) for immunocytochemistry (ICC) analysis. After treatment with IC50 of retinoids, cells were fixed in formalin neutral buffer (FNB) solution. The fixed cells were permeabilized with 0.1% Triton-x 100 and then blocked in 1% bovine serum albumin (BSA, prepared in PBS containing 0.1% Tween 20) for 30 min. Then, cells were incubated with Alexa Fluor® 488-conjugated anti-cytochrome C antibody overnight. After incubation, nuclei of cells were stained with Hoechst 33,258 (Sigma-Aldrich, St. Louis, MO, USA, 1:500). The coverslips were mounted in anti-fading medium (0.1% p-phenylenediamine, dissolved in 90% glycerin/PBS) and cytochrome C protein expression was detected using Carl Zeiss LSM 710 confocal microscope.

Assay [3] concerns Caco-2 cells. The assay can be described thus: Isobologram analysis of retinoid + 5-FU combinations (MTT). The note with it: Caco-2, combination with 5-FU; for CI (combination index): CI < 1 is synergy. From the text: This mathematical model allows the determination of CI (combination index) values based on the Equation (1):CI = d1/D1 + d2/D2 (1) where d1 and d2 are the doses of drug 1 and drug 2 that, when given in combination, produce a specific response. D1 and D2 are the doses of drug 1 and drug 2, that, when given individually, produce the same response. Also, CI < 1 is synergy, CI = 1 is additivity and CI > 1 is antagonism
DRI < 1 indicates unfavorable dose reduction and ineffective combination.

In the case of `CC1=C(/C=C/C(C)=C/C=C/C(C)=C/C(=O)O)C(C)(C)CCC1` [ATRA, All-trans retinoic acid, reference compound], the “Total antioxidant activity (TAO)” value in the assay with Caco-2 cells [1] was determined as 62.6 ± 0.15 µM/L. In the assay with Caco-2 cells [2] (12 h treatment), the “% G0-G1” value was determined as 26.1 ± 3.6%, the “% G2M” value amounted to 16.3 ± 1.9 %, the “% S” value is given as 57.5 ± 8.1 % and the “% SubG0-G1” value is 0.14 ± 0.1%. Further, the “%G2M/G0-G1” value with Caco-2 cells [2] (12 h treatment) was determined as 62.5 ± 8.8 %. Moreover, in the assay with Caco-2 cells [2] (24 h treatment), the “% G0-G1” value stood at 37.1 ± 4.5%, the “% G2M” value came to 31.8 ± 4.8 %, the “% S” value came out at 29.5 ± 3.5% and the “% SubG0-G1” value was 1.6 ± 0.19 %. The “%G2M/G0-G1” value with Caco-2 cells [2] (24 h treatment) is recorded as 85.7 ± 16.3 %.

As to `CC1(C)CCC(C)(C)c2cc(C#Cc3cccc(C(=O)O)c3)ccc21` [EC19, 3-(5,5,8,8-tetramethyl-5,6,7,8-tetrahydronaphthalen-2-ylethynyl) benzoic acid], in the assay on Caco-2 cells [1], the “Total antioxidant activity (TAO)” value was determined as 22.6 ± 0.024 µM/L. In the assay with RAR-γ, the “RAR-γ gene expression, fold increase” value was “without affecting”. For the same compound, in the assay with cytochrome-C (Cyt-C), the “Cyt-C gene expression, fold change” value is 3.6 fold. Besides, the “RAI2 gene expression, fold change” value in the assay on RAI2 was found to be 4.4 fold. The “RAR-β gene expression, fold increase” value in the assay with RAR-β stood at 131 fold. In the assay with p53, the “p53 gene expression, fold change” value is recorded as 1.2 fold. Also, the “Bax gene expression, fold change” value in the assay on Bax amounted to 1.9 fold. Moreover, in the assay with RAR-α, the “RAR-α gene expression, fold increase” value is 2.6 fold. The “E-cadherin gene expression, fold change” value with E-cadherin was 54 fold. Further, the “Cas-3 gene expression, fold change” value in the assay with Caspase-3 (Cas-3) is recorded as 8.6 fold. In addition, the “Cas-8 gene expression, fold change” value with Caspase-8 (Cas-8) turned out to be 7.1 fold. Besides, the “WRN gene expression, fold change” value in the assay with WRN was ~ 40 fold. Moreover, in the assay on HT-29, the “SI (selectivity index)” value was less than 1 and the IC50 (commonly the concentration needed to halve the response being measured) is more than 100 µM. Moreover, in the assay on Caco-2 cells [2] (12 h treatment), the “% G0-G1” value is on record as 39.1 ± 6.7%, the “% G2M” value was 9.1 ± 1.3 %, the “% S” value is given as 51.5 ± 7.2 % and the “% SubG0-G1” value is on record as 0.29 ± 0.1%. Also, the “%G2M/G0-G1” value in the assay on Caco-2 cells [2] (12 h treatment) turned out to be 23.4 ± 2.8 %. For the same compound, in the assay on Caco-2 cells [2] (24 h treatment), the “% G0-G1” value turned out to be 29.0 ± 4.1%, the “% G2M” value worked out at 22.5 ± 3.1 %, the “% S” value is on record as 44.0 ± 8.2 % and the “% SubG0-G1” value is on record as 4.5 ± 0.6 %. In addition, the “%G2M/G0-G1” value with Caco-2 cells [2] (24 h treatment) amounted to 77.6 ± 10.8 %. For the same compound, in the assay with Cytochrome-C, the “cytosolic Cyt-C protein released (anti-Cyt-C fluorescence intensity)” value is reported as “significant increase”. In the assay with Caco-2 cells [3], the “DRI (dose reduction index)” value was 4.5 ± 0.6 and the “CI (combination index)” value is listed as 0.46 ± 0.06.

Consider `CC1(C)CCC(C)(C)c2cc(C#Cc3ccc(C(=O)O)cc3)ccc21` [EC23, 4-(5,5,8,8-tetramethyl-5,6,7,8-tetrahydronaphthalen-2-ylethynyl) benzoic acid], for which, in the assay on Caco-2 cells [1], the “Total antioxidant activity (TAO)” value turned out to be 22.6 ± 0.024 µM/L. Further, the “RAR-γ gene expression, fold increase” value with RAR-γ worked out at 2.3 fold. In addition, the “Cyt-C gene expression, fold change” value in the assay with cytochrome-C (Cyt-C) is on record as 2.8 fold. Moreover, in the assay with RAI2, the “RAI2 gene expression, fold change” value was 1.6 fold. In addition, the “RAR-β gene expression, fold increase” value in the assay on RAR-β is given as “no effect”. Further, in the assay on p53, the “p53 gene expression, fold change” value is on record as “did not induce p53 upregulation”. In addition, the “Bax gene expression, fold change” value with Bax is recorded as “not able to induce any significant change”. Besides, the “RAR-α gene expression, fold increase” value with RAR-α is “no effect”. In addition, the “E-cadherin gene expression, fold change” value in the assay with E-cadherin is on record as 16.3 fold. Moreover, the “Cas-3 gene expression, fold change” value in the assay with Caspase-3 (Cas-3) is “did not induce significant expression”. Besides, in the assay with Caspase-8 (Cas-8), the “Cas-8 gene expression, fold change” value was “did not induce significant expression”. Also, the “WRN gene expression, fold change” value with WRN is on record as ~ 40 fold. Moreover, in the assay with HT-29, the “SI (selectivity index)” value was less than 1 and the IC50 was more than 100 µM. Besides, in the assay with Caco-2 cells [2] (12 h treatment), the “% G0-G1” value was 58.7 ± 8.2%, the “% G2M” value stood at 6.8 ± 0.8 %, the “% S” value is reported as 34.0 ± 4.1% and the “% SubG0-G1” value came to 0.46 ± 0.1%. Moreover, the “%G2M/G0-G1” value in the assay on Caco-2 cells [2] (12 h treatment) amounted to 11.6 ± 1.7 %. Moreover, in the assay on Caco-2 cells [2] (24 h treatment), the “% G0-G1” value stood at 32.7 ± 4.6%, the “% G2M” value is reported as 15.8 ± 1.9 %, the “% S” value is on record as 47.6 ± 9.1 % and the “% SubG0-G1” value is recorded as 3.9 ± 0.43 %. In addition, the “%G2M/G0-G1” value in the assay on Caco-2 cells [2] (24 h treatment) was determined as 48.3 ± 6.8 %. Also, the “cytosolic Cyt-C protein released (anti-Cyt-C fluorescence intensity)” value with Cytochrome-C was “second rank”. Besides, in the assay on Caco-2 cells [3], the “DRI (dose reduction index)” value came out at 7.5 ± 0.8 and the “CI (combination index)” value amounted to 0.27 ± 0.03.
